# Target: T1, RORγ LBD-GST tagged (Homo sapiens, UniProt P51449)
# T1 construct: RORγ LBD-GST tagged (Cat No. RORC-114H, Creative Biomart); purchased Creative Biomart RORC-114H
# T1 sequence (P51449 269-508 limits assumed): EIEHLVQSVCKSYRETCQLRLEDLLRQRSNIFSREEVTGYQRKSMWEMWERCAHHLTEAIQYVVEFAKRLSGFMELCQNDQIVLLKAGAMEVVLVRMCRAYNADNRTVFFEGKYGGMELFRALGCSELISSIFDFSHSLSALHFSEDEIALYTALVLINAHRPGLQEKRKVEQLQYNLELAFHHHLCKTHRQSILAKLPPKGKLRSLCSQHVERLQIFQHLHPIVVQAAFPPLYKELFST
# Test: LanthaScreen TR-FRET RORγ coactivator assay
# Assay type: biochemical
# Settings: Fluorescein-D22 coactivator peptide, 1 hour room temperature
# From the text: LanthaScreen TR-FRET Retinoid-Related Orphan Receptor Gamma (RORγ) Coactivator Assay Materials and Reagents • 1. […] Fluorescein-D22 coactivator peptide (Cat No. PV4386, Invitrogen) • 3. LanthaScreen™ Tb anti-GST antibody (Cat No. PV3550, Invitrogen) • 4. TR-FRET coregulatory buffer D (Cat No, PV4420, Invitrogen) • 5. DTT (Cat No. P2325, Fisher) • 6. […] Tecan Infinite M1000 plate reader (Tecan) Experimental Procedure Prepare Complete TR-FRET Coregulator Buffer D by adding 1 M DTT to TR-FRET Coregulator Buffer D to the final concentration of 5 mM DTT. Make compound dilution in Complete TR-FRET Coregulator Buffer D. Highest dose is 3 μM, 7-folder dilution for total 7 doses. Add 10 μL to each well of a 384-well plate. For the negative and positive controls, add 10 μL of Complete TR-FRET Coregulator Buffer D. Prepare RORγ LBD using Complete TR-FRET Coregulator Buffer D. The final concentration of RORγ LBD is 25 ng/reaction. Add 5 μL RORγ LBD to all the wells of the 384-well assay plate except negative wells which adding 5 μL Complete TR-FRET Coregulator Buffer D. Prepare a solution containing 0.6 μM Fluorescein-D22 and 8 nM Tb anti-GST antibody using Complete TR-FRET Coregulator Buffer D. Add 5 μL to all wells of the 384-well assay plate. Briefly and gently mix the 384-well plate on a plate shaker and incubate at room temperature protected from light for 1 hour. The plate may be sealed with a cover to minimize evaporation. Read the plate at wavelengths of 520 nm and 495 nm on Tecan Infinite M1000. IC50 values were calculated using GraphPad Prism by plotting the logarithm of compounds concentration versus percent inhibition.
row,SMILES,IC50 [µM]
1,"O=S(=O)(CC1CC1)c1ccc(C(O)c2nc3c(Cl)c(-c4ccccc4F)c(Cl)cc3[nH]2)cc1 (stereo not shown) [Example 75, (4-((cyclopropylmethyl)sulfonyl)phenyl)(4,6-dichloro-5-(2-fluorophenyl)-1H-benzo[d]imidazol-2-yl)methanol]",0.006
2,"CCS(=O)(=O)c1ccc(Cc2nc3c(Cl)c(-c4ccccc4OC(F)(F)F)c(Cl)cc3[nH]2)c(F)c1 [Example 76, 4,6-dichloro-2-(4-(ethylsulfonyl)-2-fluorobenzyl)-5-(2-(trifluoromethoxy)phenyl)-1H-benzo[d]imidazole]",0.387
3,"CCS(=O)(=O)c1ccc(C(O)c2nc3c(Cl)c(-c4ccccc4C(F)(F)F)c(Cl)cc3[nH]2)c(F)c1 (stereo not shown) [Example 79, (4,6-dichloro-5-(2-(trifluoromethyl)phenyl)-1H-benzo[d]imidazol-2-yl)(4-(ethylsulfonyl)-2-fluorophenyl)methanol]",0.048
4,"O=S(=O)(CC1CC1)c1ccc(C(O)c2nc3c(Cl)c(-c4ccccc4OC(F)(F)F)c(Cl)cc3[nH]2)c(F)c1 (stereo not shown) [Example 82, (4-((cyclopropylmethyl)sulfonyl)-2-fluorophenyl)(4,6-dichloro-5-(2-(trifluoromethoxy)phenyl)-1H-benzo[d]imidazol-2-yl)methanol]",0.046
5,"CCS(=O)(=O)c1ccc(C(CO)c2nc3c(Cl)c(-c4ccccc4OC(F)(F)F)c(Cl)cc3[nH]2)c(Cl)c1 (stereo not shown) [Example 87, 2-(2-chloro-4-(ethylsulfonyl)phenyl)-2-(4,6-dichloro-5-(2-(trifluoromethoxy)phenyl)-1H-benzo[d]imidazol-2-yl)ethanol]",0.024
6,"CCS(=O)(=O)c1ccc(C(O)c2nc3c(Cl)c(-c4ccccc4OC(F)(F)F)c(Cl)cc3[nH]2)c(Cl)c1 (stereo not shown) [Example 88, (2-chloro-4-(ethylsulfonyl)phenyl)(4,6-dichloro-5-(2-(trifluoromethoxy)phenyl)-1H-benzo[d]imidazol-2-yl)methanol]",0.162
7,"CCS(=O)(=O)c1ccc(Cc2nc3c(Cl)c(-c4ccccc4OC(F)F)c(Cl)cc3[nH]2)c(Cl)c1 [Example 89, 4,6-dichloro-2-(2-chloro-4-(ethylsulfonyl)benzyl)-5-(2-(difluoromethoxy)phenyl)-1H-benzo[d]imidazole]",0.004
8,"O=S(=O)(CC1CC1)c1ccc(C(CO)c2nc3c(Cl)c(-c4ccccc4OC(F)(F)F)c(Cl)cc3[nH]2)c(Cl)c1 (stereo not shown) [Example 91, 2-(2-chloro-4-((cyclopropylmethyl)sulfonyl)phenyl)-2-(4,6-dichloro-5-(2-(trifluoromethoxy)phenyl)-1H-benzo[d]imidazol-2-yl)ethanol]",0.14
9,"O=S(=O)(CC1CC1)c1ccc(Cc2nc3c(Cl)c(-c4ccccc4Cl)c(Cl)cc3[nH]2)cc1 [Example 93, 4,6-dichloro-5-(2-chlorophenyl)-2-(4-((cyclopropylmethyl)sulfonyl)benzyl)-1H-benzo[d]imidazole]",0.075
10,"N#Cc1ccccc1-c1c(Cl)cc2[nH]c(Cc3ccc(S(=O)(=O)CC4CC4)cc3)nc2c1Cl [Example 95, 2-(4,6-dichloro-2-(4-((cyclopropylmethyl)sulfonyl)benzyl)-1H-benzo[d]imidazol-5-yl)benzonitrile]",0.065
11,"O=S(=O)(CC1CC1)c1ccc(Cc2nc3c(Cl)c(-c4ccccc4OC(F)F)c(Cl)cc3[nH]2)c(F)c1 [Example 98, 4,6-dichloro-2-(4-((cyclopropylmethyl)sulfonyl)-2-fluorobenzyl)-5-(2-(difluoromethoxy)phenyl)-1H-benzo[d]imidazole]",0.007
12,"CS(=O)(=O)c1ccc(C(CO)c2nc3c(Cl)c(-c4ccccc4OC(F)(F)F)c(Cl)cc3[nH]2)c(Cl)c1 (stereo not shown) [Example 102, 2-(2-chloro-4-(methylsulfonyl)phenyl)-2-(4,6-dichloro-5-(2-(trifluoromethoxy)phenyl)-1H-benzo[d]imidazol-2-yl)ethanol]",0.062
13,"CS(=O)(=O)c1ccc(C(O)c2nc3c(Cl)c(-c4ccccc4OC(F)(F)F)c(Cl)cc3[nH]2)c(Cl)c1 (stereo not shown) [Example 103, (2-chloro-4-(methylsulfonyl)phenyl)(4,6-dichloro-5-(2-(trifluoromethoxy)phenyl)-1H-benzo[d]imidazol-2-yl)methanol]",0.158
14,CC(C)S(=O)(=O)c1ccc(Cc2nc3c(Cl)c(-c4ccccc4OC(F)(F)F)c(Cl)cc3[nH]2)cc1 [Example 104],0.337
15,"CC(C)S(=O)(=O)c1ccc(C(O)c2nc3c(Cl)c(-c4ccccc4OC(F)(F)F)c(Cl)cc3[nH]2)cc1 (stereo not shown) [Example 106, (4-((iso-propyl)sulfonyl)phenyl)(4,6-dichloro-5-(2-(trifluoromethoxy)phenyl)-1H-benzo[d]imidazol-2-yl)methanol]",0.003
16,"CCS(=O)(=O)c1ccc(C(O)c2nc3c(F)c(-c4ccccc4OC(F)(F)F)c(F)cc3[nH]2)cc1 (stereo not shown) [Example 110, (4,6-difluoro-5-(2-(trifluoromethoxy)phenyl)-1H-benzo[d]imidazol-2-yl)(4-(ethylsulfonyl)phenyl)methanol]",0.698

# The remaining compounds from weak to strong by IC50, led by results:
row,IC50 [µM],SMILES
1,1.04,"CCS(=O)(=O)c1ccc(C(CO)c2nc3c(F)c(-c4ccccc4OC(F)(F)F)c(F)cc3[nH]2)cc1 (stereo not shown) [Example 109, 2-(4,6-difluoro-5-(2-(trifluoromethoxy)phenyl)-1H-benzo[d]imidazol-2-yl)-2-(4-(ethylsulfonyl)phenyl)ethanol]"
2,0.188,"CCS(=O)(=O)c1ccc(C(O)c2nc3c(Cl)c(-c4ccccc4OC(F)F)c(Cl)cc3[nH]2)c(F)c1 (stereo not shown) [Example 85, (4,6-dichloro-5-(2-(difluoromethoxy)phenyl)-1H-benzo[d]imidazol-2-yl)(4-(ethylsulfonyl)-2-fluorophenyl)methanol]"
3,0.123,"N#Cc1ccccc1-c1c(Cl)cc2[nH]c(C(CO)c3ccc(S(=O)(=O)CC4CC4)cc3)nc2c1Cl (stereo not shown) [Example 96, 2-(4,6-dichloro-2-(1-(4-((cyclopropylmethyl)sulfonyl)phenyl)-2-hydroxyethyl)-1H-benzo[d]imidazol-5-yl)benzonitrile]"
4,0.082,"CS(=O)(=O)c1ccc(Cc2nc3c(Cl)c(-c4ccccc4OC(F)(F)F)c(Cl)cc3[nH]2)c(Cl)c1 [Example 101, 4,6-dichloro-2-(2-chloro-4-(methylsulfonyl)benzyl)-5-(2-(trifluoromethoxy)phenyl)-1H-benzo[d]imidazole]"
5,0.067,"O=S(=O)(CC1CC1)c1ccc(C(O)c2nc3c(Cl)c(-c4ccccc4OC(F)(F)F)c(Cl)cc3[nH]2)c(Cl)c1 (stereo not shown) [Example 92, (2-chloro-4-((cyclopropylmethyl)sulfonyl)phenyl)(4,6-dichloro-5-(2-(trifluoromethoxy)phenyl)-1H-benzo[d]imidazol-2-yl)methanol]"
6,0.065,"CCS(=O)(=O)c1ccc(Cc2nc3c(Cl)c(-c4ccccc4OC(F)F)c(Cl)cc3[nH]2)c(F)c1 [Example 83, 4,6-dichloro-5-(2-(difluoromethoxy)phenyl)-2-(4-(ethylsulfonyl)-2-fluorobenzyl)-1H-benzo[d]imidazole]"
7,0.06,"CCS(=O)(=O)c1ccc(Cc2nc3c(F)c(-c4ccccc4C(F)(F)F)c(F)cc3[nH]2)cc1 [Example 111, 2-(4-(ethylsulfonyl)benzyl)-4,6-difluoro-5-(2-(trifluoromethyl)phenyl)-1H-benzo[d]imidazole]"
8,0.055,CC(C)S(=O)(=O)c1ccc(C(CO)c2nc3c(Cl)c(-c4ccccc4C(F)(F)F)c(Cl)cc3[nH]2)cc1 (stereo not shown) [Example 107]
9,0.032,"CCS(=O)(=O)c1ccc(Cc2nc3c(F)c(-c4ccccc4OC(F)(F)F)c(F)cc3[nH]2)cc1 [Example 108, 2-(4-(ethylsulfonyl)benzyl)-4,6-difluoro-5-(2-(trifluoromethoxy)phenyl)-1H-benzo[d]imidazole]"
10,0.023,"O=S(=O)(CC1CC1)c1ccc(C(O)c2nc3c(Cl)c(-c4ccccc4Cl)c(Cl)cc3[nH]2)cc1 (stereo not shown) [Example 94, (4-((cyclopropylmethyl)sulfonyl)phenyl)(4,6-dichloro-5-(2-chlorophenyl)-1H-benzo[d]imidazol-2-yl)methanol]"
11,0.004,"O=S(=O)(CC1CC1)c1ccc(Cc2nc3c(Cl)c(-c4ccccc4OC(F)(F)F)c(Cl)cc3[nH]2)c(Cl)c1 [Example 90, 4,6-dichloro-2-(2-chloro-4-((cyclopropylmethyl)sulfonyl)benzyl)-5-(2-(trifluoromethoxy)phenyl)-1H-benzo[d]imidazole]"
12,0.001,"N#Cc1ccccc1-c1c(Cl)cc2[nH]c(C(O)c3ccc(S(=O)(=O)CC4CC4)cc3)nc2c1Cl (stereo not shown) [Example 97, 2-(4,6-dichloro-2-((4-((cyclopropylmethyl)sulfonyl)phenyl)(hydroxy)methyl)-1H-benzo[d]imidazol-5-yl)benzonitrile]"
